Measured values as given in patent US20230024528A1, “METHODS OF USE OF ANTI-TREM2 ANTIBODIES” (Alector LLC, priority 2019, published 2023).

Test system: human macrophages
Test: Human macrophage cell viability and survival following CSF1R inhibition with PLX3397, CellTiter-Glo
Type: cell-based
Conditions: PLX3397 30 nM alone, complete RPMI media
Procedure: To evaluate the ability of an anti-TREM2 antibody to sustain survival of human macrophages after CSF1R inhibition, the ability of AL2p-58 huIgG1 PSEG to enhance cell-viability and survival in the presence of CSF1R inhibitor PLX3397 was tested (DeNardo et al., Cancer Discov (2011) 1(1):54-67. 22039576t; Peng, et al., J. of Exp Canc Res (2019) 38(1):372. PMID: 31438996). Similar to CSF1 withdrawal experiments, human derived macrophages were plated onto 96-well plates on Day 6 and treated with IgG1, PLX3397 (30 nM), AL2p-58 huIgG1 PSEG (10 μg/mL) or a combination of PLX3397 and AL2p-58 huIgG1 PSEG on Day 7, all in complete RPMI media. Cell viability was quantified using the CellTiter-Glo luminescent viability assay (Promega) on each subsequent day.

FC(F)(F)c1ccc(CNc2ccc(Cc3c[nH]c4ncc(Cl)cc34)cn2)cn1 [PLX3397, reference compound]
cell viability of human macrophages treated with CSF1R inhibitor alone: reduced cell viability
